In patent publication US20260098026A1, “M4 ACTIVATORS/MODULATORS AND USES THEREOF” (Cerevel Therapeutics, LLC, priority 2022, published 2026):
pEC50: −log10 of the molar value.

What was measured:
Format in all cases: cell-based
[1] = biological target: T1, M3 muscarinic acetylcholine receptor (mAChR) (Homo sapiens, UniProt P20309); assay: FLIPR calcium assay (Fluo 8), M3-overexpressing CHO-K1 cells
T1 construct: expressed in transfected cells; host or cells: CHO-K1
Summary of the method: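 CHO-K1 cells overexpressing each human receptor seeded at 15,000 per well, grown overnight at 37° C., 5% CO2, then loaded with Fluo-8 for 30 min. Compounds in HBSS added and calcium response read on FLIPR; EC50 and Emax calculated per subtype.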

[2] = biological target: T2, M2 mAChR (Homo sapiens, UniProt P08172); assay: cAMP TR-FRET assay with forskolin, M2-overexpressing CHO-K1 cells
T2 construct: expressed in transfected cells; host or cells: CHO-K1
T2 sequence (P08172 1-466): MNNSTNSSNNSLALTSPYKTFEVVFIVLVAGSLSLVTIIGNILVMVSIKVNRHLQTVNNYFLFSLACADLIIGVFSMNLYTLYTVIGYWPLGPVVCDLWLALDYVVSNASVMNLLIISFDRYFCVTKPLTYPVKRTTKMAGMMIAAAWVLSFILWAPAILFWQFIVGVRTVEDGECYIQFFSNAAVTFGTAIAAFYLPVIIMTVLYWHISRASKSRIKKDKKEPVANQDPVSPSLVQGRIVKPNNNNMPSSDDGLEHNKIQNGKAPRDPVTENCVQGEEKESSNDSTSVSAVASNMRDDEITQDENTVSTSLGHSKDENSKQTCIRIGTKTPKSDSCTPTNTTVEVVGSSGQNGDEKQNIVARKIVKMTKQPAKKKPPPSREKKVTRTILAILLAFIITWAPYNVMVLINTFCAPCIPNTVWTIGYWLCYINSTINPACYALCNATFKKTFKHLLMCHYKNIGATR
Description: The M2 and M4 mACh receptors are Gi-coupled receptors which, upon activation, produce a decrease in cAMP. Assays were developed that measured the potency and efficacy of compounds at the M2 or M4 mAChR using M2- or M4-overexpressing CHO-K1 cell lines. Time-resolved fluorescence resonance energy transfer (TR-FRET) technology was used, where signal occurs as a result of transfer of energy if the donor molecule is in close proximity to an acceptor molecule when the molecules have bound to the molecule of interest. The cAMP detection is a competition binding assay, where cAMP produced by cells competes for binding with the labeled donor molecule to the anti-cAMP acceptor antibody. Due to the low basal levels of cAMP in the CHO-K1 cell line, forskolin was used to increase cAMP levels to enable assessment of agonist activity at the mAChR of interest.

[3] = biological target: T3, M4 mAChR (Homo sapiens, UniProt P08173); assay: cAMP TR-FRET assay with forskolin, M4-overexpressing CHO-K1 cells
T3 construct: expressed in transfected cells; host or cells: CHO-K1
T3 sequence (P08173 1-479): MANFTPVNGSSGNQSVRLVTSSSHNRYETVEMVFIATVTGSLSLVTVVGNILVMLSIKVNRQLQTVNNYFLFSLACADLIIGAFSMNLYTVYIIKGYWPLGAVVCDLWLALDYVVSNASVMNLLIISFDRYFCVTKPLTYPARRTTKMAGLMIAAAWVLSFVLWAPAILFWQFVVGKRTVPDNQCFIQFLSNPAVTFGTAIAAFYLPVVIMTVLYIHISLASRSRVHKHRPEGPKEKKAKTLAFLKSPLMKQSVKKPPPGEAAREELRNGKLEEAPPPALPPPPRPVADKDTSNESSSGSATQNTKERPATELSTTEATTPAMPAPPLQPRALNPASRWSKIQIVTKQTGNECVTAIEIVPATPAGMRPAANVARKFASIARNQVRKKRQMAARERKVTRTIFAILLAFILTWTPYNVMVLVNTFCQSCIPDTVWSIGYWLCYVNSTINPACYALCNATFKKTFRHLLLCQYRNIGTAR
Summary of the method: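 CHO-K1 cells overexpressing the receptor were stimulated with forskolin to raise cAMP, so that Gi-mediated agonist decreases could be measured. cAMP was quantified by TR-FRET competition between cellular cAMP and labelled donor for anti-cAMP antibody, giving potency and efficacy.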

T1 sequence (P20309 whole entry): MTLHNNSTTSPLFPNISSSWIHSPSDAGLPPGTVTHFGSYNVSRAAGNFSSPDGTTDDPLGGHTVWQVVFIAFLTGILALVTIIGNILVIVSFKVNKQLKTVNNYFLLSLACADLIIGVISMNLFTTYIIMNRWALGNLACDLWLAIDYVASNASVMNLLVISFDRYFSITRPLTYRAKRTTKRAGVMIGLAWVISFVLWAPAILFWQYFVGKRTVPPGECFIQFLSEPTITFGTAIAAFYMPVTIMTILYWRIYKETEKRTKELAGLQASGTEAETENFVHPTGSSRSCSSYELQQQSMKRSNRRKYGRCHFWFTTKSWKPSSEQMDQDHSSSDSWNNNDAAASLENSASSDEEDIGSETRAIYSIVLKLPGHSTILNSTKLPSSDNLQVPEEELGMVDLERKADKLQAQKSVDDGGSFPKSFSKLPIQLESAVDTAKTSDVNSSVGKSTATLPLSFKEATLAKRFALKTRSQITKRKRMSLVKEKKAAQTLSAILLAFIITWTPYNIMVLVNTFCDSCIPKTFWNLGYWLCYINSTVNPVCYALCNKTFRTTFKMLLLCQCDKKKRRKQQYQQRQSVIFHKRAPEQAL

| SMILES | pEC50 ([1]; FLIPR calcium) | M2 EC50 (nM) ([2]; cAMP TR-FRET with forskolin) | Emax ([3]; cAMP TR-FRET with forskolin) [%] | pEC50 ([1]; FLIPR) | Emax ([2]; cAMP assay) [%] | Emax ([3]; cAMP assay) [%] |
| --- | --- | --- | --- | --- | --- | --- |
| CCOC(=O)N1CC2(CC[C@@H](N3CCN(c4cc(F)cnc4C4CCOCC4)CC3)C2)C1 [Compound A7, ethyl (6R)-6-[4-(5-fluoro-2-tetrahydropyran-4-yl-3-pyridyl)piperazin-1-yl]-2-azaspiro[3.4]octane-2-carboxylate] | < 5.00 | I.A | 80 to 100 | – | – | – |
| CCOC(=O)N1CC2(CC[C@@H](N3CCN(c4cc(F)cnc4-c4cnn(C(F)F)c4)CC3)C2)C1 [Compound A194] | – | – | – | < 5.00 | < 19 | 80 to 100 |
